Laboratory results from patent publication US5939385A, “Transglutaminase cross-linkable polypeptides and methods relating thereto” (ZymoGenetics, Inc., priority 1995, dated 1999).
No end group written: not given here.

Target: T1, recombinant Factor XIII (rFXIIIa) (Homo sapiens, UniProt P00488)
T1 construct: made in house
T1 sequence (P00488 39-732 limits assumed): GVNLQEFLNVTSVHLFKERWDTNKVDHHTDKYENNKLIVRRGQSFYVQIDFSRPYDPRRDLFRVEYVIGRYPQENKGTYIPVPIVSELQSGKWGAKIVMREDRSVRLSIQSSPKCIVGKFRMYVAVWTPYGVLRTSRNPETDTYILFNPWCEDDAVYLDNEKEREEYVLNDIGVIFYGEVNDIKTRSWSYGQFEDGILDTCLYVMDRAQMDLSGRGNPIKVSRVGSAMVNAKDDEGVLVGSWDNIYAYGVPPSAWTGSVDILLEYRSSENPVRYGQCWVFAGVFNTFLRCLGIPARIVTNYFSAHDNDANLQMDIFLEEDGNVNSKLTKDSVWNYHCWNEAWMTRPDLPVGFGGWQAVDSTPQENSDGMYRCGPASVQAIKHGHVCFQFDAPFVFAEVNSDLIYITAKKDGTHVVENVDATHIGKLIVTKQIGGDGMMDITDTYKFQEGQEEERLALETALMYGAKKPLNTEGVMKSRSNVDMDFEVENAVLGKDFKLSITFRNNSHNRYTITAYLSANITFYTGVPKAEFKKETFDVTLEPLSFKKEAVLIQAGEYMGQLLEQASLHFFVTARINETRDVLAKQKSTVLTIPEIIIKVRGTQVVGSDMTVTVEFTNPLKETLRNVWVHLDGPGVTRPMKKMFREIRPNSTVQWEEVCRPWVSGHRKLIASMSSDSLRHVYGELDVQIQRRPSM
Assay: Factor XIII cross-linking assay of test polypeptide substrates (HPLC area % vs time)
Type: biochemical
Details: for Monomer Consumption d[S]/dt (rate of substrate utilization) / Crosslinking d(2[S-])/dt (rate of monomer incorporation into dimers) / Hydrolysis d[-NH3]/dt (hydrolysis = deamidation): initial rate, 2mM substrate, 40 ug/ml rFXIIIa (preactivated), 2.0 U/ml Thrombin, 2.5 mM CaCl2, pH 7.4; for Monomer Consumption d[S]/dt (rate of substrate utilization): 125 mM NaCl, 50 mM TrisHCl; for Hydrolysis %: share of hydrolysis (deamidation) relative to hydrolysis plus crosslinking, same reaction conditions
Protocol: Polypeptides are screened for the ability to form transglutaminase-catalyzed cross-links using a cross-linking assay as described in more detail below. […] Each reaction receives 50 mM CaCl2 to a final concentration of 2.5 mM. A negative control for each test substrate is also prepared in which the reaction lacks a transglutaminase (e.g., Factor XIII). A positive control of the fibrinogen polypeptide (The-Ile-Gly-Glu-Gly-Gln-Gln-His-His-Leu-[…]-Gln-Ala-Gly-Asp-Val) is used for each set of reactions. The reactions are initiated by the addition of 40 μg/ml of transglutaminase (e.g., recombinant Factor XIII) followed by 0.1 unit of bovine thrombin (Enzyme Research Laboratories, Inc., South Bend, Ind.) to each solution, except the negative controls. The reactions are incubated in a 37° C. water bath. A time course of 10 μl samples are taken from each reaction at 0 minutes, 30 minutes, 60 minutes, 120 minutes and overnight. The reactions are stopped by boiling for one minute. After the reactions are terminated, each sample is diluted to 50 μl with 40 μl of TBS buffer (120 mM NaCl, 50 mM Tris (pH 7.6)) and the samples are prepared for HPLC analysis.
Each sample is chromatographed on a C-18 reverse phase HPLC column (Vydac, Hesperia, Calif. or the like) using a gradient of 0-40% B in 30 minutes (Solvent A: 0.05% trifluoroacetic acid (TFA) in water and Solvent B: 0.045% TFA in 80% acetonitrile, 20% water) on a Hewlett Packard 1090 Series II HPLC or the like. The signal is detected at a wavelength of 215 nm. The area % of each reaction product is collected and plotted versus time to determine the rates of polypeptide utilization dimer formation and multimer formation. A deamidation ratio is determined by dividing the deamidation rate by the dimerization rate.
The ability of the test polypeptides to form Factor XIII-induced multimers, and the susceptibility of the polypeptides to deamidation were assessed using the method described in detail below.
Approximately 0.5 mg of lyophilized polypeptide was dissolved in 50 mM Tris, 125 mM NaCl (pH 7.6) to give a final concentration of 2 mM by weight. […] Each test polypeptide solution received 50 mM CaCl2 to a final concentration of 2.5 mM. For each reaction, a negative control lacking Factor XIII was included. A positive control of the fibrinogen polypeptide Thr-Ile-Gly-Glu-Gly-Gln-Gln-His-His-Leu-Gly-Gly-Ala-Lys-Gln-Ala-Gly-Asp-Val was used for each set of reactions. The reactions were initiated by the addition of 40 μg/ml of recombinant Factor XIII followed by 0.1 unit of bovine thrombin (Enzyme Research Laboratories, Inc.) to each solution, except the negative controls. The reactions were incubated in a 37° C. water bath. Samples of 10 μl were taken from each reaction at 0 minutes, 30 minutes, 60 minutes, 120 minutes and overnight. The reactions were stopped by boiling for one minutes. The samples were diluted to 50 μl TBS buffer (120 mM NaCl, 50 mM Tris (pH 7.6)), and the samples were prepared for HPLC analysis.
Each reaction was chromatographed on a C-18 reverse phase HPLC column (Vydac, Hesperia, Calif., or the like) using a gradient of 0-40% B in 30 minutes (solvent A: 0.05% TFA in water and Solvent B: 0.045% TFA in 80% acetonitrile/20% water) on a Hewlett Packard 1090 Series II HPLC. The signal was detected at a wavelength of 215 nm. The area % of each reaction product was collected and plotted versus time to determine the rates of polypeptide utilization and dimer formation. A deamidation ratio was determined by dividing the deamidation rate by the dimerization rate. […] The abbreviations used in Table 1 are as follows: d[S]/dt indicates the rate of substrate utilization, d[S2 ]/dt indicates the rate of dimer formation and (-NH2 /S2) indicates the relative rates of deamidation to dimerization. The initial rates were normalized to that of the fibrinogen polypeptide Thr-Ile-Gly-Glu-Gly-Gln-Gln-His-His-Leu-Gly-Gly-Ala-Lys-Gln-Ala-Gly-Asp-Val. […]

Monomer Consumption d[S]/dt (rate of substrate utilization) | Crosslinking d(2[S-])/dt (rate of monomer incorporation into dimers) | Hydrolysis d[-NH3]/dt (hydrolysis = deamidation) | Hydrolysis % [%] | Substance
-6.0 uM (monomer)/min | 3.0 uM (monomer)/min | 5.4 uM (monomer)/min | 64 | EGQHHLGAKQAG [-- EGQ-- HHL-- GAKQAG--]
-10.8 uM (monomer)/min | 9.8 uM (monomer)/min | 0.0 uM (monomer)/min | 0 | EGQHHLGGAKQA [-- EGQ-- HHLGGAKQA--]
-13.1 uM (monomer)/min | 11.2 uM (monomer)/min | 0.4 uM (monomer)/min | 3 | GEGQHHLGGAKQAG [-- GEGQ-- HHLGGAKQAG--]
-4.7 uM (monomer)/min | 4.9 uM (monomer)/min | 0.0 uM (monomer)/min | 0 | GQHHLGAKQ [-- GQ-- HHLG-- AKQ--]
-8.4 uM (monomer)/min | 8.4 uM (monomer)/min | -0.2 uM (monomer)/min | 0 | GQHHLGAKQA [-- GQ-- HHL-- GAKQA--]
-2.4 uM (monomer)/min | 1.8 uM (monomer)/min | 0.8 uM (monomer)/min | 31 | GQHHLGGAKA [-- GQ-- HHLGGAK-- A--]
-6.9 uM (monomer)/min | 6.2 uM (monomer)/min | 0.0 uM (monomer)/min | 0 | GQHHLGGAKQ [-- GQ-- HHLGGAKQ--, Gly-Gln-His-His-Leu-Gly-Gly-Ala-Lys-Gln]
-4.4 uM (monomer)/min | 4.4 uM (monomer)/min | 0.0 uM (monomer)/min | 0 | GQHHLGGAKQG [GQ-- HHLGGAKQG]
-9.8 uM (monomer)/min | 7.6 uM (monomer)/min | 0.0 uM (monomer)/min | 0 | GVGGQHHLGGAKQVP [GVGGQ-- HHLGGAKQVP]
-7.3 uM (monomer)/min | 5.6 uM (monomer)/min | 1.7 uM (monomer)/min | 23 | GVGVPGQHHLGGAKQGVGVP [GVGVPGQ-- HHLGGAKQGVGVP]
-12.5 uM (monomer)/min | 14.1 uM (monomer)/min | -1.4 uM (monomer)/min | 0 | IGEGQHHLGGAKQAGD [-- IGEGQ-- HHLGGAKQAGD--]
-5.2 uM (monomer)/min | 6.8 uM (monomer)/min | 1.2 uM (monomer)/min | 15 | LSQSKVG [LSQSKVG]
-8.4 uM (monomer)/min | 3.6 uM (monomer)/min | 5.4 uM (monomer)/min | 60 | TIGEGQHHLGAKQAGDV [TIGEGQ-- HHL-- GAKQAGDV]
-7.0 uM (monomer)/min | 4.0 uM (monomer)/min | 3.0 uM (monomer)/min | 43 | TIGEGQHHLGAKQAGDV [TIGEGQ-- HHLG-- AKQAGDV]
